For test [1], the target named is T1, human histamine H1 receptor (Homo sapiens, UniProt P35367). Description: Evaluation of Human H1 Receptor Function (GeneBLAzer H1-NFAT-bla HEK 293T cells). The settings on record: histamine 30 nM, read-out: Evaluation of H1 Receptor Function (IC50 value, antagonistic effect). In kind it is cell-based. As for the experimental part: Test Example 3: Evaluation of Human H1 Receptor Function
The antagonistic effect was evaluated by the method described below. GeneBLAzer® H1-NFAT-bla HEK 293T-cells (Invitrogen Corporation, recombinant cells expressing the human histamine H1 receptor) were incubated at 37° C. for 30 minutes in the presence of the test compounds dissolved in DMSO in a high glucose Dulbecco's Modified Eagle Medium (GlutaMAX, containing 10% fetal bovine serum, 100 μM nonessential amino acids, 25 mM HEPES, 100 U/mL penicillin, and 100 μg/mL streptomycin), and histamine was added such that the final concentration became 30 nM, followed by further incubation for 4.5 hours. Then, a mixture of LiveBLAzer™ FRET-B/G Loading Kit (Invitrogen Corporation) and Solution D (Invitrogen Corporation) was added, followed by leaving to stand at room temperature for 2 hours under shaded conditions. Thereafter, the fluorescence intensity was measured under two conditions of 400 nm/460 nm and 400 nm/535 nm (excitation light/fluorescence) by using a multilabel counter (EnVision: PerkinElmer Inc.). The 50% inhibitory concentration (IC50 value) was calculated in accordance with (measured value−blank measured value at 400 nm/460 nm)/(measured value−blank measured value at 400 nm/535 nm) of each test sample.

Test [2] concerns the target T2, human histamine H4 receptor (Homo sapiens, UniProt Q9H3N8).
T2 construct: purchased PerkinElmer Inc; host or cells: CHO-K1
Description: Evaluation of H4 Receptor Function ([35S]GTPγS binding). In kind it is biochemical. As for the experimental part:
The antagonistic effect was evaluated by the method described below. Membrane preparation from recombinant CHO-K1 cell expressing the human histamine H4 receptor (PerkinElmer Inc.), 10 μM GDP, 0.1 μM histamine, and the compounds dissolved in DMSO were reacted at 30° C. for 20 minutes in a buffering solution containing 20 mM HEPES, pH 7.4, 100 mM NaCl, 10 mM MgCl2, 1 mM DTT, and 1 mM EDTA on an assay plate. Thereafter, SPA beads (Amersham plc) were added, followed by incubation for 60 minutes, and further 0.3 nM [^35S]GTPγS (PerkinElmer Inc.) was added, followed by incubation for 30 minutes.

Test [3] concerns the target T1, human histamine H1 receptor. Description: Evaluation of Human H1 Receptor Affinity ([3H]pyrilamine binding). Also noted: purchased PerkinElmer Inc; host or cells: CHO-K1. The following applies: inhibition constant Ki, CHO-K1 membrane preparation. In a few lines: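 Ki values are Cheng-Prusoff conversions of IC50 (Kd 1.1 nM) from radioligand displacement of 1.2 nM [3H]pyrilamine, with 1.0 μM pyrilamine defining nonspecific binding.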

The target in test [4] is T2, human histamine H4 receptor. Description: Evaluation of Human H4 Receptor Affinity ([3H]histamine binding). The settings on record: inhibition constant Ki, CHO-K1 membrane preparation. In a few lines:
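Radioligand displacement: compound competes with 8.2 nM [3H]histamine at recombinant human H4 receptor in CHO-K1 membranes (Tris-HCl 50 mM pH 7.4, EDTA 1.25 mM; 25 °C, 90 min), with filter-bound radioactivity counted. IC50 was converted to Ki via Cheng-Prusoff (Kd 5.7 nM); 1.0 μM histamine set nonspecific binding.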

The mark [5] stands for this setting: [35S]GTPγS binding, CHO-K1 membrane, 0.1 μM histamine, read-out: Evaluation of H4 Receptor Function (IC50 value, antagonistic effect).
Setting [6] is: read-out: Evaluation of H4 Receptor Affinity.

Like-named read-outs stand apart in the source and are kept apart here. A value given as a limit tells only on which side of the number the result lay.

We go through 16 compounds from patent US20190047966A1, “NOVEL COMPOUND AND PHARMACOLOGICALLY ACCEPTABLE SALT THEREOF” (MEIJI SEIKA PHARMA CO., LTD., priority 2016, published 2019).

T2 sequence (Q9H3N8 whole entry): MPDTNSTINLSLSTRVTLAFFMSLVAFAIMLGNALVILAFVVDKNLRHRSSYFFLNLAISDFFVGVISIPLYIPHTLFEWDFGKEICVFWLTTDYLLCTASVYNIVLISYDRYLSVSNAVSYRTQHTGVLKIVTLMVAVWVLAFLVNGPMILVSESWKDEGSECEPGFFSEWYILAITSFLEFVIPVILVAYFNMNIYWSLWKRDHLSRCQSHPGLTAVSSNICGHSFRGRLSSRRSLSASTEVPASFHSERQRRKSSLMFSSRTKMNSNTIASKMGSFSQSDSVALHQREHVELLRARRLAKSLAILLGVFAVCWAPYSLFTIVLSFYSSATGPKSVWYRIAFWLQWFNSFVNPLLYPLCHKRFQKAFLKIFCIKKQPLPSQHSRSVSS
T1 sequence (P35367 whole entry): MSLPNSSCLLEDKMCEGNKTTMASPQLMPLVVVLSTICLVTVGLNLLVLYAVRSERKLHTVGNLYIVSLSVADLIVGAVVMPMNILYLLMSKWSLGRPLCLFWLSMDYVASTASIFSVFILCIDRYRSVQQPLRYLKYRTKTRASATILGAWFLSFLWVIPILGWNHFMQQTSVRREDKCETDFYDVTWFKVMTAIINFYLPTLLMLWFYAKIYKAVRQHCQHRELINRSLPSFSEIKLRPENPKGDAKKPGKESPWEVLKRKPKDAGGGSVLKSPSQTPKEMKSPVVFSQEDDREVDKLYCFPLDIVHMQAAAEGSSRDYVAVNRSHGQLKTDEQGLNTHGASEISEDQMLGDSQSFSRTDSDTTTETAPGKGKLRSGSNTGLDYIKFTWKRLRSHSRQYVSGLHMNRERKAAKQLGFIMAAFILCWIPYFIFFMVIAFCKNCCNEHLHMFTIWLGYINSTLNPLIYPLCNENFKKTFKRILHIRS

Consider `Nc1nc2c(c(N3CCN(CCOCCOCC(=O)O)CC3)n1)CCc1cc(OCc3ccc(Cl)cc3)ccc1-2` [11(b), 2-(2-(2-(4-(2-amino-8-((4-chlorobenzyl)oxy)-5,6-dihydrobenzo[h]quinazolin-4-yl)piperazin-1-yl)ethoxy)ethoxy)acetic Acid], for which the IC50 in test [1] was less than 200 nM; in test [2] (setting [5]), 200 to 2000 nM. Also, the Ki in test [3] and in test [4] (setting [6]) was less than 100 nM each time.

For the compound `Nc1nc2c(c(N3CCN(CCOCc4cccc(C(=O)O)c4)CC3)n1)CCc1cc(OCc3ccc(Cl)cc3)ccc1-2` [15(b), 3-((2-(4-(2-amino-8-((4-chlorobenzyl)oxy)-5,6-dihydrobenzo[h]quinazolin-4-yl)piperazin-1-yl)ethoxy)methyl)benzoic acid], the values for the IC50 in test [1] and in test [2] (setting [5]) were less than 200 nM and 200 to 2000 nM, respectively. For the same compound, the Ki in test [3] and in test [4] (setting [6]) was less than 100 nM throughout.

Regarding `Nc1nc2c(c(N3CCN(CCOCc4cccc(C(=O)O)c4)CC3)n1)CCc1cc(OCc3ccc(OC(F)(F)F)cc3)ccc1-2` [16(b), 3-((2-(4-(2-amino-8-((4-(trifluoromethoxy)benzyl)oxy)-5,6-dihydrobenzo[h]quinazolin-4-yl)piperazin-1-yl)ethoxy)methyl)benzoic acid], the IC50 in test [1] was less than 200 nM; in test [2] (setting [5]), 200 to 2000 nM. In addition, the Ki in test [3] and in test [4] (setting [6]) was less than 100 nM throughout.

With `Nc1nc2c(c(N3CCN(CCOCc4ccc(F)c(C(=O)O)c4)CC3)n1)CCc1cc(OCc3ccc(Cl)cc3)ccc1-2` [17(b), 5-((2-(4-(2-amino-8-((4-chlorobenzyl)oxy)-5,6-dihydrobenzo[h]quinazolin-4-yl)piperazin-1-yl)ethoxy)methyl)-2-fluorobenzoic acid], the IC50 was less than 200 nM in test [1] and 200 to 2000 nM in test [2] (setting [5]). Further, the Ki in test [3] and in test [4] (setting [6]) was less than 100 nM each time.

For `Nc1nc2c(c(N3CCN(CCOCc4cccc(C(=O)O)n4)CC3)n1)CCc1cc(OCc3ccc(Cl)cc3)ccc1-2` [18(b), 6-((2-(4-(2-amino-8-((4-chlorobenzyl)oxy)-5,6-dihydrobenzo[h]quinazolin-4-yl)piperazin-1-yl)ethoxy)methyl)picolinic acid bis(trifluoroacetate)], the values for the IC50 in test [1] and in test [2] (setting [5]) were less than 200 nM and 200 to 2000 nM, respectively. The Ki in test [3] and in test [4] (setting [6]) was less than 100 nM each time.

In the case of `Nc1nc2c(c(N3CCN(CCOc4ccc(C(=O)O)cc4)CC3)n1)CCc1cc(OCc3ccc(Cl)cc3)ccc1-2` [19(b), 4-(2-(4-(2-amino-8-((4-chlorobenzyl)oxy)-5,6-dihydrobenzo[h]quinazolin-4-yl)piperazin-1-yl)ethoxy)benzoic acid], the IC50 in test [1] is 200 to 2000 nM; in test [2] (setting [5]), less than 200 nM. For the same compound, the Ki in test [3] was 100 to 500 nM; in test [4] (setting [6]) it was less than 100 nM.

With `Nc1nc2c(c(N3CCN(CCOCc4ccc(C(=O)O)o4)CC3)n1)CCc1cc(OCc3ccc(OC(F)(F)F)cc3)ccc1-2` [20(b), 5-((2-(4-(2-amino-8-((4-(trifluoromethoxy)benzyl)oxy)-5,6-dihydrobenzo[h]quinazolin-4-yl)piperazin-1-yl)ethoxy)methyl)furan-2-carboxylic acid], the IC50 in test [1] was less than 200 nM; in test [2] (setting [5]) it was 200 to 2000 nM. For the same compound, the Ki in test [3] and in test [4] (setting [6]) was less than 100 nM each time.

As to `Nc1nc2c(c(N3CCN(CCO[C@H]4C[C@@H](C(=O)O)C4)CC3)n1)CCc1cc(OCc3ccc(OC(F)(F)F)cc3)ccc1-2` [23(b), cis-3-(2-(4-(2-amino-8-((4-(trifluoromethoxy)benzyl)oxy)-5,6-dihydrobenzo[h]quinazolin-4-yl)piperazin-1-yl)ethoxy)cyclobutane-1-carboxylic acid], the IC50 in test [1] and in test [2] (setting [5]) was less than 200 nM each time. Further, the Ki in test [3] and in test [4] (setting [6]) was less than 100 nM throughout.

With `Nc1nc2c(c(N3CCN(CCOCc4ccc(C(=O)O)o4)CC3)n1)CCc1cc(OCc3ccc(Cl)cc3)ccc1-2` [127(b), 5-((2-(4-(2-amino-8-((4-chlorobenzyl)oxy)-5,6-dihydrobenzo[h]quinazolin-4-yl)piperazin-1-yl)ethoxy)methyl)furan-2-carboxylic acid], the IC50 in test [1] was less than 200 nM; in test [2] (setting [5]), 200 to 2000 nM. In addition, the Ki in test [3] was less than 100 nM; in test [4] (setting [6]), 100 to 500 nM.

Regarding `Nc1nc2c(c(N3CCN(CCOCc4cc(C(=O)O)ccc4F)CC3)n1)CCc1cc(OCc3ccc(Cl)cc3)ccc1-2` [129(b), 3-((2-(4-(2-amino-8-((4-chlorobenzyl)oxy)-5,6-dihydrobenzo[h]quinazolin-4-yl)piperazin-1-yl)ethoxy)methyl)-4-fluorobenzoic acid], the results for the IC50 in test [1] and in test [2] (setting [5]) were less than 200 nM and 200 to 2000 nM, respectively. For the same compound, the figures for the Ki in test [3] and in test [4] (setting [6]) were less than 100 nM and 100 to 500 nM, respectively.

Take `CN1CCN(c2nc(N)nc3c2CCc2cc(OCc4ccc(Cl)cc4)ccc2-3)CC1` [Example 1, 8-((4-chlorobenzyl)oxy)-4-(4-methylpiperazin-1-yl)-5,6-dihydrobenzo[h]quinazolin-2-amine]: the IC50 in test [1] and in test [2] (setting [5]) was less than 200 nM each time. Besides, the Ki in test [3] and in test [4] (setting [6]) was less than 100 nM each time.

With `CN1CCN(c2nc(N)nc3c2CCc2cc(OCc4ccccc4)ccc2-3)CC1` [Example 2, 8-(benzyloxy)-4-(4-methylpiperazin-1-yl)-5,6-dihydrobenzo[h]quinazolin-2-amine], the IC50 in test [1] and in test [2] was less than 200 nM throughout. For the same compound, the Ki in test [3] and in test [4] (Evaluation of H4 Receptor Affinity) was less than 100 nM throughout.

For the compound `CN1CCN(c2nc(N)nc3c2CCc2cc(OCc4ccsc4)ccc2-3)CC1` [Example 3, 4-(4-methylpiperazin-1-yl)-8-(thiophen-3-ylmethoxy)-5,6-dihydrobenzo[h]quinazolin-2-amine], the IC50 in test [1] and in test [2] (setting [5]) was less than 200 nM in each case. Further, the Ki in test [3] and in test [4] (setting [6]) was less than 100 nM each time.

`Nc1nc2c(c(N3CCN(CCOC[C@H]4CC[C@@H](C(=O)O)CC4)CC3)n1)CCc1cc(OCc3ccc(Cl)cc3)ccc1-2` [Example 12, cis-4-((2-(4-(2-amino-8-((4-chlorobenzyl)oxy)-5,6-dihydrobenzo[h]quinazolin-4-yl)piperazin-1-yl)ethoxy)methyl)cyclohexane-1-carboxylic acid]: the half-maximal inhibitory concentration (IC50) in test [1] is less than 200 nM; in test [2] (setting [5]), 200 to 2000 nM. For the same compound, the Ki in test [3] and in test [4] (setting [6]) was less than 100 nM throughout.

For the compound `Nc1nc2c(c(N3CCN(CCOC[C@H]4CC[C@H](C(=O)O)CC4)CC3)n1)CCc1cc(OCc3ccc(Cl)cc3)ccc1-2` [Example 13, trans-4-((2-(4-(2-amino-8-((4-chlorobenzyl)oxy)-5,6-dihydrobenzo[h]quinazolin-4-yl)piperazin-1-yl)ethoxy)methyl)cyclohexane-1-carboxylic acid], the IC50 was less than 200 nM in test [1] and 200 to 2000 nM in test [2] (setting [5]). Besides, the Ki in test [3] and in test [4] (setting [6]) was less than 100 nM throughout.

Regarding `Nc1nc2c(c(N3CCN(CCO[C@H]4C[C@@H](C(=O)O)C4)CC3)n1)CCc1cc(OCc3ccc(Cl)cc3)ccc1-2` [Example 14, cis-3-(2-(4-(2-amino-8-((4-chlorobenzyl)oxy)-5,6-dihydrobenzo[h]quinazolin-4-yl)piperazin-1-yl)ethoxy)cyclobutane-1-carboxylic acid], the results for the IC50 in test [1] and in test [2] (setting [5]) were less than 200 nM and 200 to 2000 nM, respectively. Further, the Ki in test [3] and in test [4] (setting [6]) was less than 100 nM throughout.
